Laboratory results published in patent US20240228481A1, “NOVEL SULFONAMIDE SERIES OF QR2 INHIBITORS TO TACKLE OXIDATIVE STRESS AND COGNITIVE DECLINE” (CARMEL HAIFA UNIVERSITY ECONOMIC CORPORATION LTD., priority 2021, published 2024).
Counter-ions that a name gives are not always drawn.

What was measured:
C57BL/6 mice = test: Delay fear conditioning after microinjection to CA1; assay type: in vivo, mouse; conditions: 5 μM to CA1
Text: Mice were anesthetized under 2% isoflurane, using an induction box (HME109, Highland Medical Equipment). They were placed in a stereotaxic device (Kopf Stereotaxic Alignment System, model 1900) under continuous 1% isoflurane anesthesia. Guide cannulas were implanted bilaterally to CA1 (from bregma: −1.9 mm AP, ±1.4 mm ML, −1.6 mm DV), cemented to the skull and fitted with 28-gauge dummy cannulas extending 0.2 mm beyond the tip of the 1.2 mm guide cannulas. The mice were allowed at least 7 days of recovery before experimentation. The QR2 inhibitor YB-808 was dissolved in DMSO and further diluted in saline to a final DMSO concentration of 0.1%. YB-537 was dissolved in saline (0.9%). A total of 1 μl of 5 μM of either compound or vehicle was infused bilaterally to CA1, via a 28-gauge infusion cannula projecting 0.4 mm (drug delivery depth bregma: −1.6 mm DV) beyond the guide cannula, connected by polyethylene tubing to a 10 μl syringe (Hamilton) over the course of 1 min. The injection cannula was kept for 60 s inside the guide cannula in order prevent osmotic seepage of the doses upward through the cannula tract. Twenty minutes following the injection, animals underwent delay fear conditioning. Following experimentation, animals were sacrificed, brains were excised and sectioned in coronal sections, and cannula implantation was validated by imaging. […]

5×FAD mice [1] = test: Delay fear conditioning in 5×FAD mice
Method: Mice are transported to the conditioning room, which is lit by red light only, and kept there for 2 min. They were then placed inside a Habitest Operant Cage, within a Habitest Isolation Cubicle (Coulbourn), on a modular shock floor made of 16 metal grids, connected to Precision Animal Shockers (Coulbourn) with illumination inside the cage coming from a 20 W bulb. The mice were given 2 min to explore, during which baseline freezing was measured. Then, a 20 s, 4 kHz, 80 dB tone was given, co-terminating with the start of a 2 s, 0.5 mA foot-shock, which was repeated a further two times, each having 1 min interval. Following the third, and last of these bouts, 1 min was given prior to the animals being removed from the chambers. The next day, the animals were returned to the room under the same conditions, and were placed back into the chambers, and freezing to the context was measured over the course of 5 min. The next day, the mice were once again returned to the conditioning room, except the room was lit with white light, while the chambers were darkened, the chamber floor was covered with a flat, smooth plastic cover, one of the walls was fitted with a paper sticker and the chamber was scented with diluted (10%) window cleaner (Sano). In this unfamiliar context, the protocol from the first day was repeated, except without the foot-shocks. Freezing for the cue was recorded during the tone. All measurements were taken with a Sentec stc-tb33usb-at camera, and analysis was performed with Freeze Frame software (Actimetrics).

5×FAD mice [2] = test: Weight, drinking rate and wellbeing of 5×FAD mice under treatment in drinking water; conditions: for average weight: 25 days, drinking water
QR1 (NQO1) = target: T1, QR1 (NQO1) (Homo sapiens, UniProt P15559); test: Selectivity assay with QR1 in place of QR2, absorbance readout; assay type: biochemical
T1 construct: purchased Sigma-Aldrich

HEK293 cells = test: DCFDA ROS measurement in HEK293 cells after H2O2 insult; assay type: cell-based; conditions: HEK293, 2 mM H2O2, 3 h
Method: FIGS. 8A-8C include vertical bar graphs showing QR2 inhibition reduces QR2 activity and ROS following induction of oxidative stress in HEK293 cells. (8A) QR2 activity is seen and is inhibited within HEK293 cells, amongst others, as measured by the rate of fluorescent co-factor oxidation. (8B) HEK293 cells seeded at 25μ 10^3 cells/well in 96-well plates were treated with 2 mM H2O2 with or without increasing doses or QR2 inhibitors for 3 h. Following incubation, the cells were stained with DCFDA for 45 min, and ROS levels were measured using a fluorimeter with ex/em 485/535 nm. N=3. (8C) ROS was measured in HCT cells, and similarly to HEK293, is reduced following QR2 inhibition. […] Data presented as mean±SEM. *p<0.05, ***p<0.0005.
The cells were harvested and resuspended in 1% clear medium (DMEM—with no phenol red, supplemented with 1% FBS, 1% L-Glutamine and 1% Penicillin-Streptomycin). A sterile poly-L-lysine-coated Nunc black, 96-well, clear flat-bottomed plate (Thermo Fisher Scientific) was seeded with 25,000 cells in 100 μL per well and incubated overnight. The next day, the medium was removed, and the wells carefully washed with PBS. […] The plate was then incubated in the dark at 37° C. for 3 h, before reading in a Tecan M200 Pro florescence microplate reader, using wavelengths Ex/Em=485 nm/535 nm.

T1 sequence (P15559 whole entry): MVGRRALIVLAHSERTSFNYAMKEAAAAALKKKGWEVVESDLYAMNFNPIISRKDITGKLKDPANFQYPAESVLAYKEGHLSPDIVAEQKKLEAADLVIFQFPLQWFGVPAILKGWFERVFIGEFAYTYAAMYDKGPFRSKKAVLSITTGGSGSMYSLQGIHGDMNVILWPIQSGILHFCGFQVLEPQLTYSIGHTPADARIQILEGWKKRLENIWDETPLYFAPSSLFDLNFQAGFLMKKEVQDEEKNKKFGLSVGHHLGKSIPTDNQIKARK

Structure (SMILES) | baseline freezing (C57BL/6 mice) [%] | freezing in response to the conditioned cue (5×FAD mice [1]; 5×FAD both sexes) [%] | freezing in response to the conditioned cue (5×FAD mice [1]; 5×FAD females) [%] | baseline freezing in conditioning chambers (5×FAD mice [1]; 5×FAD males) [%] | freezing in response to the conditioned context (5×FAD mice [1]; 5×FAD males) [%] | freezing in response to the conditioned cue (5×FAD mice [1]; 5×FAD males) [%] | adverse effects during month-long treatment (5×FAD mice [2]; 5×FAD both sexes, 50 mg/kg in drinking water) | average drinking rate (5×FAD mice [2]; 5×FAD females) [mL/g/day] | average weight (5×FAD mice [2]; 5×FAD females) [g] | average drinking rate (5×FAD mice [2]; 5×FAD males) [mL/g/day] | average weight (5×FAD mice [2]; 5×FAD males) [g] | IC50 (QR1 (NQO1)) [µM] | ROS levels after ROS insult (DCFDA) (HEK293 cells)
Cc1ccc(-c2cn3cccc(C)c3n2)cc1S(=O)(=O)N1CCNCC1 [YB-537, 8-methyl-2-(4-methyl-3-(piperazin-1-ylsulfonyl)phenyl)imidazo[1,2-a]pyridine hydrochloride] | 3.595±1.244 | 16.47±1.689 | 12.66±1.739 | 0.642±0.408 | 39.51±2.666 | 19.43±2.289 | no adverse effects were seen | 0.170 ± 0.011 | 22.76 ± 0.192 | 0.170 ± 0.035 | 32.56 ± 0.279 |  | 
Cc1cccn2cc(-c3cccc(S(=O)(=O)N4CCC(C)CC4)c3)nc12 [YB-800] |  |  |  |  |  |  |  |  |  |  |  | > 9.99 | reduced in a dose dependent manner
